Data on 1 molecule can be found in patent publication US20010055776A1, “High throughput cell-based assay kits” (priority 2000, published 2001).

This experiment has as its system hemoglobin synthesis in human erythroid progenitors. Kind of experiment: Filter plate assay of hemoglobin (HbA) in differentiating erythroid progenitors with Europium-labeled anti-hemoglobin. The experiment is classed as cell-based. The settings on record: 168 h, 0.5 mM succinylacetone, 1,000 cells/well, 3.0 μm PCF filter plate, IL-3, IL-6, SCF, EPO, 7 days, read-out: succinylacetone-mediated inhibition of hemoglobin. The protocol:
FIG. 6. Adult hemoglobin (HbA) expression by differentiating human erythroid progenitors. Cryopreserved progenitors were thawed and seeded into wells of a 96-well PCF filter plate at a density of 1,000 cells/well and cultured in the presence of IL-3, IL-6, EPO, and SCF ±/−0.5 mM succinylacetone. Hemoglobin was assayed by the filter plate procedure on day 7.
To establish the linearity of the assay relative to cell number, peripheral blood erythrocytes were seeded into wells of PCF filter plates (0.4 μm pore size for peripheral blood erythrocytes and 3.0 μm pore size for progenitor cells), fixed with 0.1 ml 1% formaldehyde for 30 minutes and then washed once with Hank's balanced salt solution (HBSS) (0.2 ml/well) and twice with HBSS containing 0.1% bovine serum albumin (BSA). All washes were done in a Millipore Silent Screen vacuum manifold with a vacuum pressure of 5″ Hg.
The cells were then permeabilized by incubation with 0.2 ml 0.1% Triton X-100 in HBSS-BSA for 10 minutes at room temperature. […] Enhancement Solution (Wallac) was added (0.1 ml/well), and after 5 minutes Europium fluorescence (excitation at […] and emission at 615 nm) was measured over a 400 μsecond time period after an initial delay of 400 μseconds with a Wallac Victor spectrofluorimeter. […]

Take `CC(=O)CC(=O)CCC(=O)O` [succinylacetone]: the inhibition (usually the share of the control response that was lost under treatment) at 500 µM stood at 86%.
